Reference: patent US20090147264A1, “LABEL-FREE, REAL-TIME DETECTION SYSTEM FOR MOLECULAR INTERACTION ANALYSIS” (The University of Pittsburgh - Of the Commonwealth System …, priority 2007, published 2009)

How the values were obtained:
HMGB1 [1] = target: T1, HMGB1 (Homo sapiens, UniProt P09429); experiment: Biolayer interferometry (BLI) binding of DNA to HMGB1 coupled to a biolayer sensor; settings: for Kd: HMGB1 amide-coupled to biolayer sensor, + CP = with cisplatin, read-out: Affinity to HMGB1; for effect of addition of platinum compound on DNA binding / affinity of DNA to HMGB1: platinum compound added to DNA
T1 sequence (P09429 1-215): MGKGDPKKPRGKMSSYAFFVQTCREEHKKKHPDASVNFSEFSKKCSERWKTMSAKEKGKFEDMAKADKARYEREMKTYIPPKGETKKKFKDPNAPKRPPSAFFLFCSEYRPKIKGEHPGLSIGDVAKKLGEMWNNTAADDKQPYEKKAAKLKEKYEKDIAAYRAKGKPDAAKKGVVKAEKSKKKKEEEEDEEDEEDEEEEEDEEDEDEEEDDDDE

RAGE = RAGE (Homo sapiens, UniProt Q15109); experiment: BLI binding of sRAGE to HMGB1 in the presence of DNA; settings: for Kd: sRAGE binding to HMGB1 in the presence of the DNA, + CP = with cisplatin, read-out: Affinity to RAGE
Chain of RAGE (Q15109 23-342 limits assumed, one chain of several): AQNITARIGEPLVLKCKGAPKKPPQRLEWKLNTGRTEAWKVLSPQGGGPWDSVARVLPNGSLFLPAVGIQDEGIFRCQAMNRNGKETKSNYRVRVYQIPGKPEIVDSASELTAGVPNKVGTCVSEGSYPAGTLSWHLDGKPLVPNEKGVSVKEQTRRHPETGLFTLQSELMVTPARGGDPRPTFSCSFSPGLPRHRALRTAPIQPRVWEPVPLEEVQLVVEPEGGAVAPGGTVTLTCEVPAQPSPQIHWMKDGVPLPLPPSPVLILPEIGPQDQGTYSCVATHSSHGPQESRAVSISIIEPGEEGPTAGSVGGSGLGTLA

HMGB1 [2] = target: HMGB1 (Homo sapiens?) (UniProt P09429); experiment: BLI; settings: given as affinity, unit not stated (M assumed)

| Molecule | Kd (HMGB1 [1]) | Kd (RAGE) | effect of addition of platinum compound on DNA binding / affinity of DNA to HMGB1 (HMGB1 [1]) | also measured |
| --- | --- | --- | --- | --- |
| 5′-CCTCTCTGGACCTTCC*T*T*T*T*GGAAGGTCCAGAGA*G*G [Oligo 1] | 6.6 nM | 8.7 nM |  |  |
| 5′-CTGGACCTTCC*T*T*T*T*GGAAGGTCC*A*G [Oligo 2] | 33 nM | 4.3 nM |  |  |
| 5′-GTA cGA agT CCG TTC cTa GGC tTG ct-3′ (5'-GTA cGA agT CCG TTC cTa GGC tTG ct-3'; as printed in the source, key not given here) [Scrambled 2, scrambled hairpin oligonucleotide used as a control] | 180 nM | 3.9 nM |  |  |
| 5′-cTC CGA CGc tCA aTG cTG GTA CGG Tat CCG TgT TAG-3′ (CTCCGACGCTCAATGCTGGTACGGTATCCGTGTTAG; chemistry not given here) [Scrambled 1, scrambled hairpin oligonucleotide used as a control] | 51 nM | 8.7 nM |  |  |
| N.N.O=C([O-])C1(C(=O)[O-])CCC1.[Pt+2] [carboplatinum, carboplatin] |  |  | enhanced DNA binding |  |
| N.N.[Cl][Pt][Cl] [cisplatin] |  |  | increases the affinity | effect of addition of platinum compound on DNA binding / affinity of DNA to HMGB1 (HMGB1 [1]; listed as cis-platinum): enhanced DNA binding; effect of cisplatin on affinity between sRAGE and HMGB1 (RAGE; in the presence of cisplatin): No increased affinity |
| O=C1[O][Pt]2([NH][C@@H]3CCCC[C@H]3[NH]2)[O]C1=O [oxaliplatin] |  |  | enhanced DNA binding |  |
| Circular DNA |  |  |  | Kd (HMGB1 [2]; p52 says circular DNA not measured well): 3.6 nM |
| Linear DNA |  |  |  | Kd (HMGB1 [2]): 0.014 nM |
